Here are results for 1 molecule from US20130136724A1, “PIG FEED, AND METHOD FOR FEEDING SAME” (Kaneka Corporation, priority 2010, published 2013).

Holding throughout (assay type): in vivo, swine
For data set [1], the system named is mother sows. Description: Coenzyme Q10 fed to mother sows in early, middle or latter pregnancy, farrowing rate and number of weaned piglets (Example 4). As to conditions: for Number of weaned piglets (average per mother sow): 100 ppm in feed of mother sows. The source says: Test groups E to G were fed with a feed prepared by adding coenzyme Q10 at a concentration of 100 ppm to a normal feed for mother sows (crude protein 15.0% or more, crude fat 2.0% or more, crude fiber 5.0% or less, crude ash 8.0% or less, calcium 0.6% or more, phosphorus 0.4% or more, TDN 74.0% or more) in early pregnancy period (test group […]), middle pregnancy period (test group F) or latter pregnancy period (test group G), and were fed only with the normal feed for mother sows in the other periods. A control group was fed only with the normal feed for mother sows throughout the entire pregnancy period. The “early pregnancy” refers to the period from mating until the 38th day, the “middle pregnancy” refers to the period from the 39th day until the 76th day after mating, and the “latter pregnancy” refers to the period (about 38 days) from the 77th day after mating until parturition. Although whether sows are pregnant can be determined by sonography generally on the 25th or 26th day after mating, the test feeding was started without checking whether the mother sows were pregnant in this test. Sows that were found not to be pregnant later were eliminated from the test. Coenzyme Q10 was not administered to the mother sows during lactation and piglets born to the mother sows. Each of control and test groups consisted of five mother sows per test, and the same test was repeated three times. Consequently, 15 sows in total were tested per group. Primiparous sows were not used, and only multiparous sows (para 2 to 10) were used for the test. A coenzyme Q10-containing premix was prepared by adding coenzyme Q10 to defatted rice bran to a concentration of 1/60. This premix was added to the normal feed with a measuring spoon (15 g/spoon) to the above-mentioned coenzyme Q10 concentrations. The feeds thus prepared were fed in a common manner. The amount of the feed fed to each mother sow was 2.5 kg/day in average in all the groups. The mother sows and piglets born to the mother sows were reared in accordance with rearing management standards of the farm. The respective groups were evaluated based on the number of piglets (the number of total births) per mother sow, and the number of living piglets among them (the number of live births), and the number of piglets that survived to weaning (the number of weaned piglets).

The test system of data set [2] is mother sows. Description: Fertility of second mating of coenzyme Q10-fed mother sows (Example 5). As to conditions: 100 ppm in feed, four months, pregnancy determined on the 28th day after second mating. The procedure: A coenzyme Q10-fed test group was fed with a feed prepared by adding coenzyme Q10 at a concentration of 100 ppm to a normal feed for mother sows (Kvodo Shiryo Co., Ltd.) for a test period (four months). A control group was fed with only the normal feed for mother sows. The sows were tested for pregnancy on the 28th day after mating, and unfertilized sows were mated again. The fertility was evaluated as a pregnancy rate for three months from one month after the start of the test until the end of the test. Whether the sows were pregnant (fertilized) was determined by sonography or the like on the 28th day after first mating and second mating. The test group consisted of 952 mother sows, and the control group consisted of 992 mother sows.

Data set [3] relates to piglets. Description: Feeding coenzyme Q10 to piglets of coenzyme Q10-fed mother sows through weaning, piglet and fattening periods (Example 2). The following applies: piglets fed about 80 ppm in weaning period feed, vs control group. The source says:
The piglets of the mother sows to which coenzyme Q10 had been administered in the test of Example 1 were fed with the following feeds: a feed prepared by adding coenzyme Q10 at about 80 ppm to a normal feed (“Healthy Pig” (registered trademark)) for the weaning period; and feeds prepared by adding coenzyme Q10 at 40 ppm to normal feeds (“Take Five” for the former half of the piglet period, “Nobita kun” for the latter half of the piglet period, and “NIC Niku Buta EX” for the fattening period). The piglets were reared and managed in a common manner. In all the periods, control groups were set up for each to which coenzyme Q10 was not administered, and the control group was also reared in a common manner.
The “weaning period” refers to the period from the 3rd day until 26th day after birth, and the “piglet period” refers to the period from the 27th day until the 84th day after birth.

The test system of data set [4] is mother sows. As to the kind of experiment: Coenzyme Q10 fed to mother sows in middle or late pregnancy, growth of postnatal piglets (Example 3). The source says:
Test groups A to D were fed with feeds prepared by adding coenzyme Q10 at 100 ppm or 400 ppm to a normal feed for mother sows (crude protein 15.0% or more, crude fat 2.0% or more, crude fiber 5.0% or less, crude ash 8.0% or less, calcium 0.6% or more, phosphorus 0.4% or more, TDN 74.0% or more) in middle pregnancy (test groups A and B) or late pregnancy (test groups C and D), and were fed only with the normal feed for mother sows in the other periods. A control group was fed only with the normal feed for mother sows throughout the entire pregnancy period. Here, the term of “middle pregnancy” refers to the period from the 39th day until the 76th day after mating, and the term of “latter pregnancy” refers to the period (about 38 days) from the 77th day after mating until parturition. The test continued for about five and a half months. Also, coenzyme Q10 was not administered to the mother sows during lactation and the piglets born to the mother sows. As for head count of mother sows, each of control and test groups consisted of five mother sows per test, and the same test was repeated three times. Consequently, […]. Primiparous sows were not used, and only multiparous sows (para 2 to 10) were used for the test. A coenzyme Q10-containing premix was prepared by adding coenzyme Q10 to defatted rice bran to be a concentration of 1/60, and was mixed with the normal feed with a measuring spoon (15 g/spoon) to the above-mentioned coenzyme Q10 concentrations. The feeds thus prepared were fed in a common manner. The average amount of the feed per mother sow was 2.5 kg/day in all the groups. The mother sows and the piglets born to the mother sows were reared in accordance with rearing management standards of the farm. The piglets born to the mother sows of the respective groups were evaluated for weight at birth, weight at weaning, and the like.

The subject of data set [5] is mother sows. Description: Feed test in mother sows, coenzyme Q10 60 ppm in feeds for eight months (Example 1). Here is the method: About 160 mother sows from an actual swine farm were used and the study group was fed with feeds (coenzyme Q content in all feeds: 60 ppm) which were prepared by mixing coenzyme Q10 in normal feeds for mother sows (“ecobreed” during pregnancy, “ecolitter” during lactation). This feed test continued for eight months in which feeding to all the mother sows was simultaneously started and simultaneously finished. Before and after the test period, only the original feeds for mother sows were fed. In this test of feeding to the sows at pregnancy period, as the pregnancy period of sows continues 114 days and the interval to the next conception after parturition is about 31 days, it is apparent that in this test, coenzyme Q10 was administered to the mother sows in various stages of pregnancy or lactation which include a specific period in latter pregnancy, the entire pregnancy period, periods prior to or after mating, and a period from mating to early pregnancy. The mother sows were reared and managed in a common manner. In order to confirm that coenzyme Q10 was mixed in the feeds for mother sows, about 100 g of each coenzyme Q10-containing test feed were sampled from three points of different feeders after one week from the preparation thereof in the test period and the each sample was analyzed.

Data set [6] relates to mother sows. Description: Interval of recurrent estrous of coenzyme Q10-fed mother sows (Example 6). As to conditions: 100 ppm in feed. The procedure:
A coenzyme Q10-fed test group was fed with a feed prepared by adding coenzyme Q10 at a concentration of 100 ppm to a normal feed for mother sows (Kyodo Shiryo Co., Ltd.) for a test period (four months). A control group was fed with only the normal feed for mother sows. Estrous cycles were evaluated by observing whether sows were in estrus for three months from one month after the start of the test until the end of the test. The test group consisted of 1055 mother sows, and the control group consisted of 1022 sows.

Data set [7] is described as follows: Coenzyme Q10 content in colostrum of mother sows by HPLC (Example 1). As to conditions: colostrum (first day) of mother sows, 60 ppm in feed, vs periods without administration. Here is the method: About 160 mother sows from an actual swine farm were used and the study group was fed with feeds (coenzyme Q content in all feeds: 60 ppm) which were prepared by mixing coenzyme Q10 in normal feeds for mother sows (“ecobreed” during pregnancy, “ecolitter” during lactation). This feed test continued for eight months in which feeding to all the mother sows was simultaneously started and simultaneously finished. Before and after the test period, only the original feeds for mother sows were fed. […] Additionally, in order to analyze the coenzyme Q10 content in milk of mother sows during lactation, about 15 ml of colostrum (first day) were sampled in a 50-ml disposal tube from six mother sows during lactation in the periods in which coenzyme Q10 was administered to them or the periods in which coenzyme Q10 was not administered to them, and the samples were analyzed for coenzyme Q10 and the ratio of the reduced form and the oxidized form of coenzyme Q10 by HPLC.

[8] abbreviates: early pregnancy, 100 ppm, compared to the control group.
Where [9] appears, read: 60 ppm in feed, vs periods in which coenzyme Q10 was not administered.
Setting [10] is: piglets born to mother sows fed 60 ppm, vs piglets reared in a conventional manner.

Molecules are shown by their SMILES.

In the case of `COC1=C(OC)C(=O)C(C/C=C(\C)CC/C=C(\C)CC/C=C(\C)CC/C=C(\C)CC/C=C(\C)CC/C=C(\C)CC/C=C(\C)CC/C=C(\C)CC/C=C(\C)CCC=C(C)C)=C(C)C1=O` [coenzyme Q10], the “Number of weaned piglets (average per mother sow)” value (shortened to “Number … (average per mother sow)”) in data set [1] (Test group E: early pregnancy) was 10.4. In addition, the “Number … (average per mother sow)” value in data set [1] (Test group F: middle pregnancy) came to 9.6. The “Number … (average per mother sow)” value in data set [1] (Test group G: late pregnancy) is given as 9.7. In addition, in data set [1] (setting [8]), the “increase in the average number of weaned piglets per mother sow” value is given as “not less than 1”, the “increase in the number of live births” value is “not less than 1” and the “increase in the number of total births” value is “not less than 1”. For the same molecule, the “fertility of second mating (pregnancy rate)” value in data set [2] is 94%. Further, the “number of weaned piglets per mother sow” value in data set [3] is given as “larger”. In addition, in data set [4] (Test group A: middle pregnancy, 100 ppm in feed of mother sows), the “Weight at weaning (average, kg)” value turned out to be 8.37 kg. Besides, the “Weight at weaning (average, kg)” value in data set [4] (Test group B: middle pregnancy, 400 ppm in feed of mother sows) stood at 8.26 kg. Also, the “Weight at weaning (average, kg)” value in data set [4] (Test group C: late pregnancy, 100 ppm in feed of mother sows) came to 8.55 kg. For the same molecule, in data set [4] (Test group D: late pregnancy, 400 ppm in feed of mother sows), the “Weight at weaning (average, kg)” value is recorded as 8.51 kg. Further, the weight at birth entry in data set [4] (test groups (100 or 400 ppm, middle or late pregnancy) vs control group) is reported as “not so different”. For the same molecule, in data set [5] (setting [9]), the frequency of albinism result is listed as “decreased”, the frequency of mummified result was “decreased”, the “number of milk-fed piglets” value was “increased” and the “number of total births” value was “increased”. In addition, the “number of weaned piglets” value in data set [5] (setting [9]) is on record as “increased”. Besides, in data set [5] (setting [10]), the “body weight of piglets after three weeks from birth” value was “heavier” and the “episodes of diarrhea in piglets” value was “less episodes”. Moreover, the “interval of recurrent estrous” value in data set [6] (four months) is 5.59 days. In data set [6] (test group vs control group), the “shortening of the interval of recurrent estrous” value was found to be 0.33 days. The “coenzyme Q10 content in colostrum” value in data set [7] is given as “apparently higher”.
